Experimental findings from US20250304353A1, “ANTIMICROBIAL BOTTLE WITH ANTIMICROBIAL SEAL” (Microban Products Company, priority 2017, published 2025) are described below.

The experiment deals with Aspergillus niger. Nature of the experiment: Anti-fungal efficacy of polypropylene cap, agar plate method AATCC 30 Part 3 (2017e). The experiment is classed as cell-based. The note with it: injection molded polypropylene cap with 2.0 wt % Microban IF1-5033-050 (0.1 wt % thiabendazole); MEA plates, up to 7 days at about 30° C.; two replicate sub-samples. The method, then:
The anti-fungal efficacy of the polypropylene cap containing thiabendazole was tested. The fungicidal activity was determined using the agar plate method AATCC 30 Part 3 (2017e). Individual plates of Malt Extract Agar (MEA) were inoculated with Aspergillus niger from primary stock cultures held at about 2° C. to about 8° C. and then incubated at about 30° C.±2° C. for up to 7 days to produce mature spores. A spore suspension was prepared from the plates in 10 mL aliquots of sterile distilled water (SDW) and filtered using glass wool. The spore suspension was adjusted using SDW so that it contained ≥10^5 spores mL^−1. Two replicate sub-samples (i.e., the polypropylene cap with thiabendazole) were placed on the surface of individual MEA plates. A 100 μL aliquot of the spore suspension of Aspergillus niger was spread over the surface of both the sub-sample and the surrounding media. The sample plates were incubated for up to 7 days at about 30° C.±2° C. […] An injection molded polypropylene cap treated with 2.0 wt % of Microban IF1-5033-050 (i.e., 0.1 wt % of thiabendazole) was tested with Aspergillus niger.

SMILES strings stand for the structures.

Consider `c1ccc2[nH]c(-c3cscn3)nc2c1` [thiabendazole], for which the “fungal growth (microscopic and/or macroscopic) on sub-sample and surrounding media” value is “No surface growth”.
